Experimental data from publication PMC8000395, “Effective Small Molecule Antibacterials from a Novel Anti-Protein Secretion Screen” (Microorganisms, 2021).
Where “and” joins values, the source holds several entries; their conditions need not be identical. Identical values can stand only once. Like-named read-outs stand apart in the source and are kept apart here.

Columns and labels:
[1] = tested on: PhoA secretion in E. coli strain BL21 (pLysS); assay: Luminescence-based HTS assay of in vivo PhoA secretion; assay type: cell-based; settings: Escherichia coli, BL21, luminescence-based HTS assay, E. coli BL21; read-out: Inhibition of PhoA Secretion IC50, HTS
[2] = tested on: PhoA secretion in E. coli MC4100; assay: microbe, parasite or virus in culture; assay type: cell-based; settings: Escherichia coli; PNPP colorimetric lab-scale assay; read-out: Inhibition of PhoA Secretion IC50, Lab-Scale
[3] = tested on: PhoA secretion in BW25113ΔtolC; assay: Lab-scale p-nitrophenyl PhoA secretion assay, ΔtolC strain; assay type: cell-based, E. coli
[4] = tested on: E. coli BL21; assay: Antimicrobial activity test (growth, OD600); assay type: cell-based; settings: Escherichia coli, BL21, BL21; 20 h, 37 °C, OD600; read-out: Bacterial Viability IC50, E. coli BL21
[5] = tested on: E. coli MC4100; assay: Antimicrobial activity test (growth, OD600); assay type: cell-based; settings: Escherichia coli, MC4100; 20 h, 37 °C, OD600; read-out: Bacterial Viability IC50, E. coli MC4100
[6] = tested on: E. coli BW25113; assay: Antimicrobial activity test (growth, OD600); assay type: cell-based; settings: Escherichia coli, 20 h, 37 °C, read-out: Bacterial Viability IC50, E. coli BW25113
[7] = tested on: B. subtilis ATCC6633; assay: Antimicrobial activity test (growth, OD600); assay type: cell-based; settings: Bacillus subtilis, ATCC6633; 20 h, 37 °C, OD600; read-out: Bacterial Viability IC50, B. subtilis ATCC6633
[8] = Turbidimetric kinetic aqueous solubility assay; assay type: physicochemical; settings: kinetic from dmso stock
Method: The determination of the aqueous solubility of compounds in this assay is based on the principle of turbidimetry. Turbidimetric methods rely on the measurement of light scattering from precipitate in solution to determine the solubility. Precipitation is identified by an absorbance increase due to blockage of the light by the particles at the wavelength of 570 nm. Compounds, stored in matrix vials (Thermo Fisher) at a stock concentration of 30 mM or 10 mM in 100% Dimethyl sulfoxide (DMSO), were used to make a serial dilution (dose-response) in a 96-well v-bottom propylene plate (Greiner, 651201). Serial dilutions are made to perform the solubility assay; they were made row-wise and start with undiluted compound (30 mM or 10 mM) in the first well and were then 1 over 3 diluted further on. The serial dilutions were eight doses long and contain six compounds per plate maximal (rows B-G). Columns 1 and 12 were filled with 100% DMSO for control purposes. The dose-response plates were 200-times diluted in 300 µL Phosphate Buffered Saline (PBS; pH = 7–7.2 without Ca^2+/Mg^2+) (Gibco, 14190-144) by transferring 1.5 µL of serially diluted compound. […] Dilutions were made by diluting one 96-well plate in two 96-well, flat-bottom, polystyrene plates (Greiner, 655101). These plates were then incubated at room temperature for 1h. After 1h incubation, the plates were read on the envision (Perkin Elmer) at 570 nm.
The data of this assay is reported as “Soluble at” value for each compound. This “soluble at” value represents the concentration where the compound is still soluble and is the concentration before the first precipitated concentration. The first precipitated concentration is the concentration where the absorbance value is more than five standard deviations higher than the average background absorbance. The average background absorbance and the standard deviation are calculated on the 0.5% DMSO controls in columns 1 and 12.

[9] = tested on: Mycobacterium abscessus ATCC19977; assay: Antimicrobial activity test (growth, OD600); assay type: cell-based; settings: Mycobacteroides abscessus, read-out: Bacterial Viability (IC50)
[10] = tested on: Pseudomonas aeruginosa 3/88; assay: Antimicrobial activity test (growth, OD600); assay type: cell-based; settings: read-out: Bacterial Viability (IC50)
[11] = tested on: Klebsiella pneumoniae ATCC 27799; assay: Antimicrobial activity test (growth, OD600); assay type: cell-based; settings: ATCC27799, read-out: Bacterial Viability (IC50)
[12] = tested on: Enterobacter cloacae; assay: Antimicrobial activity test (growth, OD600); assay type: cell-based; settings: read-out: Bacterial Viability (IC50)
[13] = tested on: Proteus vulgaris; assay: Antimicrobial activity test (growth, OD600); assay type: cell-based; settings: read-out: Bacterial Viability (IC50)
[14] = tested on: Providencia stuartii; assay: Antimicrobial activity test (growth, OD600); assay type: cell-based; settings: read-out: Bacterial Viability (IC50)
[15] = tested on: Morganella morganii; assay: Antimicrobial activity test (growth, OD600); assay type: cell-based; settings: read-out: Bacterial Viability (IC50)
[16] = tested on: Serratia marcescens; assay: Antimicrobial activity test (growth, OD600); assay type: cell-based; settings: read-out: Bacterial Viability (IC50)
[17] = tested on: Enterococcus faecium ATCC 804B; assay: Antimicrobial activity test (growth, OD600); assay type: cell-based; settings: ATCC804B, read-out: Bacterial Viability (IC50)
[18] = tested on: Staphylococcus aureus ATC6538P; assay: Antimicrobial activity test (growth, OD600); assay type: cell-based; settings: Staphylococcus aureus ATC6538P; read-out: Bacterial Viability (IC50)
[19] = tested on: Campylobacter jejuni; assay: Antimicrobial activity test (growth, OD600); assay type: cell-based; settings: read-out: Bacterial Viability (IC50)
[20] = tested on: Salmonella typhimurium; assay: Antimicrobial activity test (growth, OD600); assay type: cell-based; settings: Salmonella enterica, read-out: Bacterial Viability (IC50)
[21] = tested on: Streptococcus pneumoniae; assay: Antimicrobial activity test (growth, OD600); assay type: cell-based; settings: read-out: Bacterial Viability (IC50)
[22] = tested on: Haemophilus influenzae; assay: Antimicrobial activity test (growth, OD600); assay type: cell-based; settings: read-out: Bacterial Viability (IC50)
[23] = tested on: Shigella sonnei; assay: Antimicrobial activity test (growth, OD600); assay type: cell-based; settings: read-out: Bacterial Viability (IC50)
[24] = tested on: Gram-positive bacteria; assay: Antimicrobial activity test, summary over Gram-positive bacteria; assay type: cell-based
[25] = tested on: Gram-negative and Gram-positive bacteria; assay: Antimicrobial activity test, summary over Gram-negative and Gram-positive bacteria; assay type: cell-based; settings: for Antibacterial character: 19 Gram-negative and Gram-positive species evaluated; for IC50: summary over species, read-out: Viability of Gram-negative and Gram-positive bacteria IC50 (range over species)
[26] = tested on: E. coli BW25113ΔtolC; assay: Antimicrobial activity test (growth, OD600); settings: for Higher sensitivity of ΔtolC and imp-2413+ derivatives compared to BW25113: viability, Figure 5A
[27] = tested on: E. coli BW25113::imp-2413+; assay: Antimicrobial activity test (growth, OD600); settings: Escherichia coli, BW25113, read-out: Viability IC50, BW25113::imp-2413+
[28] = Escherichia coli, read-out: Inhibition of PhoA Secretion IC50, Lab-Scale (ΔtolC strain), BW25113ΔtolC, p-nitrophenyl assay
[29] = Escherichia coli, read-out: Inhibiton of PhoA secretion in ΔtolC strain (Lab-scale) IC50, selection threshold of the screening pipeline, Figure 1B
[30] = pH 7, aqueous buffer, turbidimetry 570 nm, PBS pH 7–7.2, 0.5% DMSO, 1 h, read-out: Aqueous Solubility (soluble at)
[31] = pH 7.1, aqueous buffer, selection threshold, Figure 1B, read-out: Solubility
[32] = B. subtilis, S. aureus, E. faecalis, S. pneumoniae, M. abscessus, read-out: Viability of Gram-positive bacteria IC50 (range over species)
[33] = for 80% of strains, selection threshold, Figure 1B, read-out: Bactericidal activity Gram+ IC50

| Structure (SMILES) | IC50 [1] [µM] | IC50 [2] [µM] | IC50 [3, 28] [µM] | IC50 [3, 29] [µM] | IC50 [4] [µM] | IC50 [5] [µM] | IC50 [6] [µM] | IC50 [7] [µM] | solubility at 1 h [8, 30] | solubility at 1 h [8, 31] [µM] | IC50 [9] [µM] | IC50 [10] [µM] | IC50 [11] [µM] | IC50 [12] [µM] | IC50 [13] [µM] | IC50 [14] [µM] | IC50 [15] [µM] | IC50 [16] [µM] | IC50 [17] [µM] | IC50 [18] [µM] | further results |
| --- | --- | --- | --- | --- | --- | --- | --- | --- | --- | --- | --- | --- | --- | --- | --- | --- | --- | --- | --- | --- | --- |
| O=C(/C=C/c1csnn1)c1ccccc1Cl [HSI#01] | 11.9 | 12.5 | 1.37 | < 2 | > 100 | > 100 | > 100 | 37.6 | 50 µM and 12.5 µg/mL | > 15 | 33.8 | > 100 | 80 to 100 | > 100 | 80 to 100 | > 100 | > 100 | > 100 | 34.5 | 14.8 | IC50 ([3]; read-out: Inhibition of PhoA Secretion IC50, Lab-Scale (ΔtolC strain), BW25113ΔtolC, p-nitrophenyl assay): 1.4 µM; IC50 [19]: > 100 µM; IC50 [20]: > 100 µM; IC50 [21]: 77.8 µM; IC50 [22]: > 100 µM; IC50 [23]: > 100 µM; IC50 [24, 32]: 7 to 38 µM; IC50 [24, 33]: < 28 µM; Antibacterial character [25]: bacteriocidal; IC50 [25]: 1 to 37 µM; IC50 ([26]; Escherichia coli, read-out: Viability IC50, BW25113ΔtolC, E. coli strain missing TolC): < 14 µM; Higher sensitivity of ΔtolC and imp-2413+ derivatives compared to BW25113 [26]: 2 to 40 times; IC50 [27]: 23.2 µM |
| O=C(/C=C/c1csnn1)c1cc(Cl)ccc1Cl [HSI#05] | 35.2 | 7 | 0.94 | < 2 | > 100 | > 100 | > 100 | 27.8 | 4.8 µg/mL | > 15 | 17.9 | > 100 | > 100 | > 100 | > 100 | > 100 | > 100 | > 100 | 9.4 | 4.1 | IC50 [19]: > 100 µM; IC50 [20]: > 100 µM; IC50 [21]: 29.7 µM; IC50 [22]: > 100 µM; IC50 [23]: > 100 µM; IC50 [24, 32]: 7 to 38 µM; IC50 [24, 33]: < 28 µM; Antibacterial character [25]: bacteriocidal; IC50 [25]: 1 to 37 µM; IC50 ([26]; read-out: Viability IC50, BW25113ΔtolC, E. coli strain missing TolC, listed as HSI#5): < 14 µM; Higher sensitivity of ΔtolC and imp-2413+ derivatives compared to BW25113 [26]: 2 to 40 times; IC50 [27]: 10.3 µM |
| O=C(/C=C/c1csnn1)c1cccc2ccccc12 [HSI#10] | 20 | 19.6 | 0.99 | < 2 | > 100 | > 100 | > 100 | 26 | 4.4 µg/mL | > 15 | 21.8 | > 100 | > 100 | > 100 | > 100 | > 100 | > 100 | > 100 | 23.5 | 7.8 | IC50 [19]: > 100 µM; IC50 [20]: > 100 µM; IC50 [21]: 60.9 µM; IC50 [22]: > 100 µM; IC50 [23]: > 100 µM; IC50 [24, 32]: 7 to 38 µM; IC50 [24, 33]: < 28 µM; Antibacterial character [25]: bacteriocidal; IC50 [25]: 1 to 37 µM; Higher sensitivity of ΔtolC and imp-2413+ derivatives compared to BW25113 [26]: 2 to 40 times; IC50 [27]: 12.2 µM |
